Experimental data taken from ChEMBL document CHEMBL1130866, “Conodiparines A-D, new bisindoles from Tabernaemontana. Reversal of vincristine-resistance with cultured cells” (Bioorg Med Chem Lett, 1998).
Values after ≈ are worked out from the molar mass of the structure shown.

Columns and labels:
Type in all cases: functional, cell-based
KB [1] = test: Compound was evaluated for its cytotoxicity against vincristine-sensitive KB/S human oral epidermoid carcinoma cell lines.
KB [2] = test: Compound was evaluated for its cytotoxicity against vincristine-resistant KB/VJ300 human oral epidermoid carcinoma cell lines, with added vincristine 0.25 ug/mL.
KB [3] = test: Compound was evaluated for its cytotoxicity against vincristine-resistant KB/VJ300 human oral epidermoid carcinoma cell lines.

C/C=C1/CN(C)[C@H]2Cc3c([nH]c4ccccc34)[C@@H](c3c(OC)ccc4c5c([nH]c34)[C@]3(C(=O)OC)C[C@@H]4C[C@H]([C@H](C)O)C3N(CC5)C4)C[C@H]1[C@]2(CO)C(=O)OC
IC50 (KB [1]): 20.8 µg/mL (≈ 27.7 µM)
IC50 (KB [2]): 2.45 µg/mL (≈ 3.26 µM)
IC50 (KB [3]): 15 µg/mL (≈ 20 µM)

C/C=C1/CN(C)[C@H]2Cc3c([nH]c4ccccc34)[C@@H](c3cc4c5c([nH]c4cc3OC)[C@]3(C(=O)OC)C[C@@H]4C[C@H](C(C)=O)[C@@H]3N(CC5)C4)C[C@H]1[C@]2(CO)C(=O)OC
IC50 (KB [1]): 21.4 µg/mL (≈ 28.6 µM)
IC50 (KB [2]): 5.6 µg/mL (≈ 7.48 µM)
IC50 (KB [3]): 17 µg/mL (≈ 22.7 µM)

C/C=C1/CN(C)[C@H]2Cc3c([nH]c4ccccc34)[C@@H](c3c(OC)ccc4c5c([nH]c34)[C@]3(C(=O)OC)C[C@@H]4C[C@H](C(C)=O)C3N(CC5)C4)C[C@H]1[C@]2(CO)C(=O)OC
IC50 (KB [1]): 18.6 µg/mL (≈ 24.8 µM)
IC50 (KB [2]): 4.6 µg/mL (≈ 6.14 µM)
IC50 (KB [3]): 13.6 µg/mL (≈ 18.2 µM)

C/C=C1\CN(C)[C@H]2Cc3c([nH]c4ccccc34)[C@@H](c3cc4c5c([nH]c4cc3OC)[C@]3(C(=O)OC)C[C@@H]4C[C@H]([C@H](C)O)C3N(CC5)C4)C[C@H]1[C@]2(CO)C(=O)OC
IC50 (KB [1]): 19.2 µg/mL (≈ 25.6 µM)
IC50 (KB [2]): 1.45 µg/mL (≈ 1.93 µM)
IC50 (KB [3]): 13.5 µg/mL (≈ 18 µM)

CC[C@]1(O)C[C@H]2CN(CCc3c([nH]c4ccccc34)[C@@](C(=O)OC)(c3cc4c(cc3OC)N(C=O)[C@H]3[C@@](O)(C(=O)OC)[C@H](OC(C)=O)[C@]5(CC)C=CCN6CC[C@]43[C@@H]65)C2)C1 [VINCRISTINE]
IC50 (KB [1]): 0.014 µg/mL (≈ 0.017 µM)
IC50 (KB [3]): 1.05 µg/mL (≈ 1.27 µM)
